{"source": "patent US12195762B2", "about": "“Induction of pluripotent cells” (The Scripps Research Institute, priority 2009, dated 2025)", "key": {"[1]": {"system": "human primary fibroblasts (CRL2097 or BJ)", "assay": "iPSC induction from human primary fibroblasts transduced with the four reprogramming factors, with compound treatment", "format": "cell-based", "details": "for effect on reprogramming (in words): 4 factor-mediated reprogramming of fibroblasts", "procedure": "We tested known inhibitors of the TGFβ receptor and MEK on 1×10^4 (Feng, B. et al., Cell Stem Cell 4, 301-12 (2009)) human primary fibroblasts (CRL2097 or BJ) that were retrovirally transduced with the 4TFs, for their effect on reprogramming kinetics and efficiency (see FIG. 1a for details). On day 7 (D7) post-infection, the compounds were added, individually or in combinations, and the cultures were examined for iPSCs over the next 1-3 weeks.\nThe Slc7a1-expressing human fibroblast cells were seeded at 1×10^5 cells/well of a 6 well plate on the day 1. On day 2, 0.25 ml of each retroviral supernatant was added to the cells in the presence of 6 μg/ml polybrene. A second round of transduction was done on day 3. Infection efficiency was estimated by fluorescence microscopy on cells transduced in parallel with GFP or RFP gene-carrying retroviruses. Seven days after initial transduction, fibroblasts were harvested by trypsinization and re-plated at 1×10^4 cells/well of a 6 well plate coated with matrigel (1:50 dilution, cat 354234, BD Biosciences). For compound treatment, the cells were cultured in human reprogramming medium (DMEM/F12, 20% Knockout serum replacer, 1×MEM Non-Essential amino acid, lx glutamax, 0.11 mM 2-Mercaptoethanol, 20 ng/ml bFGF and 1,000 U/ml LIF) and were treated with 2 μM SB431542 (Stemgent), 0.5 μM PD0325901 (Stemgent), 0.5 μM Thiazovivin, or combinations of the compounds. The media were changed every 2-3 days depending on the cell density. Seven days after compound treatment, either the plates were fixed and stained for Alkaline phosphatase (ALP) activity, or stained for protein markers, or the cultures were continued with or without indicated splitting by trypsinization till day 30. For split cultures, the cells were split (1:4) and re-plated onto irradiated CF-1 MEF feeder layer (2.5×10^5 cells/well) in each well of 6 well plate and were split (1:10) again on day 21. The cells were maintained in the same media and compound cocktail described above except for the concentrations of PD0325901 (0.5 μM for D14 and 1 μM for D21) and SB431542 (0.5-1 μM after D14). The iPSC colonies were subsequently maintained in conventional hESC media in the absence of the above compounds.\nAlkaline phosphatase staining was performed using ALP detection kit (cat no: SCR004, Chemicon) according to the product instructions. For immunocytochemistry, cells were fixed in 4% paraformaldehyde (10 min, RT), washed twice with PBS, blocked using 5% normal donkey serum (Chemicon) and 0.1% TritonX-100 (15 min, RT) and then treated with primary antibodies overnight at 4° C. The primary antibodies used were anti-NANOG (cat no: AB9220, Chemicon, 1:1,000); anti-OCT4 (cat no: sc-5279, Santa Cruz biotech, 1:200), anti-SSEA 4 (cat no: mab4304, Chemicon, 1:500), anti-Tra-1-81 (cat 560123, BD Biosciences, 1:100), anti-Tra-1-81 (mAb 4381, Chemicon, 1:500), anti-βIII TUBULIN (cat no: MMS-435P, Covance Research Products Inc, 1:1000), anti-PDX 1 (1:500) (a kind gift from Dr. C. Wright), anti-BRACHYURY (cat No: AF2085, R & D, final concentration 0.2 μg/ml). The cells were washed twice with PBS and then treated with secondary antibodies for 1 hour at room temperature. The secondary antibodies used were Alexa fluor 488 donkey anti-rabbit or anti-mouse IgG (Invitrogen, 1:1,000) and Alexa fluor 555 donkey anti-rabbit or anti-mouse IgG (Invitrogen, 1:1,000). Nuclei were stained with 0.5 μg/ml DAPI (Sigma). Images were captured using a Nikon Eclipse TE2000-U/X-cite 120 EXFO microscope with a photometric CoolSnap HQ2 camera."}, "[2]": {"system": "NHEKs, Neonatal Human Epidermal Keratinocytes", "assay": "Reprogramming of NHEKs (TRA-1-81 positive iPSC colonies)", "format": "cell-based", "details": "for generation of iPSCs / enhancement of reprogramming under OK condition (in words): 2TFs (OK)", "procedure": "NHEKs were cultured in a 100 mm tissue culture dish and transduced 3 times (3-4 hours each transduction) with freshly produced lentivirus supernatants. 1,000,000 transduced NHEKs were seeded on the irradiated x-ray inactivated CF1 MEF feeder cells in a 100-mm dish and cultured in KCM and treated with 5 μM PS48, 0.25 mM NaB (Stemgent) and 0.5 μM A-83-01 (Stemgent) for 2 weeks, followed by changing half volume of media to hESCM and supplementing with 5 μM PS48, 0.25 mM NaB and 0.5 μM A-83-01 for another 2 weeks. Then cell culture media were changed to hESCM and supplemented with 5 μM PS48, 0.25 mM NaB, 0.5 μM A-83-01 and 0.5 μM PD0325901 (Stemgent) for additional four weeks. The same OCT4 infected keratinocytes cultured in media without chemicals were used as a control. The culture was split by Accutase (Millipore) and treated with 1 μM Thiazovivin (Stemgent) in the first day after splitting. The iPSC colonies stained positive by Alexa Fluor 555 Mouse anti-Human TRA-1-81 antibody (BD Pharmingen) were picked up for expansion on feeder cells in hESCM and cultured routinely.\nNHEKs, Neonatal Human Epidermal Keratinocytes; HUVECs, Human Umbilical Vein Endothelial Cells; AHEKs, Adult Human Epidermal Keratinocytes; AFDCs, Amniotic Fluid Derived Cells. Chemical concentration used: PD, 0.5 μM PD0325901; A83, 0.5 μM A-83-01; PS48, 5 μM PS48; VPA, 0.5 mM Valproic acid; NaB, 0.25 mM Sodium butyrate; Par, 2 μM Parnate; CHIR, 3 μM CHIR99021. For four-factor or three-factor induced reprogramming, NHEKs were seeded at a density of 100,000 transduced cells per 10 cm dish and positive colonies were counted four-week later; For two-factor induced reprogramming, NHEKs were seeded at a density of 100,000 transduced cells per 10 cm dish and positive colonies were counted six-week later; For one-factor induced reprogramming, NHEKs and AHEKs were seeded at a density of 1,000,000 transduced cells per 10 cm dish and positive colonies were counted eight-week later; HUVECs and AFDCs were seeded at a density of 200,000 transduced cells per 10 cm dish and positive colonies were counted six-week later."}}, "note": "“Also recorded” adds a separate entry of the source."}
{"compound": "NC(=O)c1ccc(-c2nc(-c3ccc4c(c3)OCO4)c(-c3ccccn3)[nH]2)cc1", "note": "[SB431542]", "values": [{"measurement": "dose dependence of the effect on iPS cell generation", "setting": "[1]; 4TFs", "result": "dose dependent"}, {"measurement": "ALP+ colonies with hESC-like morphology", "setting": "[1]; 4TFs, 1×10^4 cells, day 7 post-treatment (D14), SB431542 2 μM, PD0325901 0.5 μM", "result": "1-2 colonies"}, {"measurement": "number of granulate (partially reprogrammed) colonies", "setting": "[1]; 4TFs, 30 days without splitting", "result": "outnumbered by several fold the few hESC-like colonies"}]}
{"compound": "Cc1ccc2c(c1)C(=O)C1(O)CCN(c3ccccc3)C1=N2", "note": "(stereo not drawn) [blebbistatin]", "values": [{"measurement": "effect on reprogramming (in words)", "setting": "[1]", "result": "can be substituted for SB431542 (an ALK5 inhibitor), albeit with a reduced effect"}]}
{"compound": "O=C(NOC[C@H](O)CO)c1ccc(F)c(F)c1Nc1ccc(I)cc1F", "note": "[PD0325901]", "values": [{"measurement": "NANOG+ colonies at day 14", "setting": "[1]; 4TFs, D14, no splitting", "result": "no NANOG^+ colonies"}]}
{"compound": "O=C(O)/C=C(/CCc1ccc(Cl)cc1)c1ccccc1", "note": "[PS48]", "values": [{"measurement": "generation of iPSCs / enhancement of reprogramming under OK condition (in words)", "setting": "[2]", "result": "substantially enhance reprogramming"}, {"measurement": "enhancement of the reprogramming efficiency", "setting": "[2]; two factors/OK, with 0.5 μM PD0325901 and 0.5 μM A-83-01", "result": "about fifteen fold"}]}
{"compound": "TGFβ", "values": [{"measurement": "effect on reprogramming (in words)", "setting": "[1]", "result": "inhibitory effect"}]}
{"compound": "CCCC(=O)[O-].[Na+]", "note": "[NaB, Sodium butyrate]", "values": [{"measurement": "generation of iPSCs / enhancement of reprogramming under OK condition (in words)", "setting": "[2]", "result": "substantially enhance reprogramming; also recorded: much more reliable and efficient"}]}
